US8765749B2, “1,6-disubstituted indole compounds as protein kinase inhibitors” (Korea Institute of Science and Technology, priority 2009, dated 2014)

Assays:
[1] = test system: SK-MEL28 cells; test: Inhibition activity against proliferation of SK-MEL28 melanoma cells (MTT assay); settings: Homo sapiens, SK-MEL-28, read-out: Inhibition activity against proliferation of SK-MEL28 cells (GI50, μM)
[2] = test system: A375P cells; test: Inhibition activity against proliferation of A375P melanoma cells (MTT assay); settings: Homo sapiens, read-out: Inhibition activity against proliferation of A375P cells (GI50, μM)

Compound | GI50 [1] [µM] | GI50 [2] [µM]
Nc1cc(-n2ccc3ccc(-c4cccc(NC(=O)Nc5ccc(C(F)(F)F)c(Cl)c5)c4)cc32)ncn1 [Example 2, 1-(3-(1-(6-aminopyrimidin-4-yl)-1H-indol-6-yl)phenyl)-3-(3-chloro-4-(trifluoromethyl)phenyl)urea] | < 10 | < 10
Nc1cc(-n2ccc3ccc(-c4cccc(NC(=O)Nc5ccccc5F)c4)cc32)ncn1 [Example 3, 1-(3-(1-(6-aminopyrimidin-4-yl)-1H-indol-6-yl)phenyl)-3-(2-fluorophenyl)urea] |  | < 10
Nc1cc(-n2ccc3ccc(-c4cccc(NC(=O)Nc5ccc(Cl)c(Cl)c5)c4)cc32)ncn1 [Example 4, 1-(3-(1-(6-aminopyrimidin-4-yl)-1H-indol-6-yl)phenyl)-3-(3,4-dichlorophenyl)urea] |  | < 10
Nc1cc(-n2ccc3ccc(-c4cccc(NC(=O)NC5CCCCC5)c4)cc32)ncn1 [Example 5, 1-(3-(1-(6-aminopyrimidin-4-yl)-1H-indol-6-yl)phenyl)-3-cyclohexylurea] | < 10 | < 10
Nc1cc(-n2ccc3ccc(-c4cccc(NC(=O)c5ccc(Cl)c(C(F)(F)F)c5)c4)cc32)ncn1 [Example 6, N-(3-(1-(6-aminopyrimidin-4-yl)-1H-indol-6-yl)phenyl)-4-chloro-3-(trifluoromethyl)benzamide] | < 10 | < 10
Nc1cc(-n2ccc3ccc(-c4cccc(NC(=O)c5cc(N6CCOCC6)cc(C(F)(F)F)c5)c4)cc32)ncn1 [Example 7, N-(3-(1-(6-aminopyrimidin-4-yl)-1H-indol-6-yl)phenyl)-3-morpholino-5-(trifluoromethyl)benzamide] | < 10 | < 10
Cc1cn(-c2cc(C(=O)Nc3cccc(-c4ccc5ccn(-c6cc(N)ncn6)c5c4)c3)cc(C(F)(F)F)c2)cn1 [Example 8, N-(3-(1-(6-aminopyrimidin-4-yl)-1H-indol-6-yl)phenyl)-3-(4-methyl-1H-imidazol-1-yl)-5-(trifluoromethyl)benzamide] | < 10 | < 10
CC(C)(C#N)c1cccc(C(=O)Nc2cccc(-c3ccc4ccn(-c5cc(N)ncn5)c4c3)c2)c1 [Example 9, N-(3-(1-(6-aminopyrimidin-4-yl)-1H-indol-6-yl)phenyl)-3-(2-cyanopropan-2-yl)benzamide] | < 10 | < 10
COc1ccc(-c2ccc(C(=O)Nc3cccc(-c4ccc5ccn(-c6cc(N)ncn6)c5c4)c3)o2)cc1 [Example 10, N-(3-(1-(6-aminopyrimidin-4-yl)-1H-indol-6-yl)phenyl)-5-(4-methoxyphenyl)furan-2-carboxamide] |  | < 10
Nc1cc(-n2ccc3ccc(-c4cccc(NC(=O)c5ccc(-c6cc(C(F)(F)F)ccc6Cl)o5)c4)cc32)ncn1 [Example 11] |  | < 10
Cc1cc(C(=O)Nc2cccc(-c3ccc4ccn(-c5cc(N)ncn5)c4c3)c2)c(C)o1 [Example 12, N-(3-(1-(6-aminopyrimidin-4-yl)-1H-indol-6-yl)phenyl)-2,5-dimethylfuran-3-carboxamide] |  | < 10
Cc1cc(C(=O)Nc2cccc(-c3ccc4ccn(-c5cc(N)ncn5)c4c3)c2)no1 [Example 13, N-(3-(1-(6-aminopyrimidin-4-yl)-1H-indol-6-yl)phenyl)-5-methylisoxazol-3-carboxamide] | < 10 | < 10
Nc1cc(-n2ccc3ccc(-c4cccc(NC(=O)c5cc(-c6ccc(Cl)cc6)on5)c4)cc32)ncn1 [Example 14, N-(3-(1-(6-aminopyrimidin-4-yl)-1H-indol-6-yl)phenyl)-5-(4-chlorophenyl)isoxazol-3-carboxamide] |  | < 10
Nc1cc(-n2ccc3ccc(-c4cccc(NC(=O)c5cscn5)c4)cc32)ncn1 [Example 15, N-(3-(1-(6-aminopyrimidin-4-yl)-1H-indol-6-yl)phenyl)thiazol-4-carboxamide] |  | < 10
Nc1cc(-n2ccc3ccc(-c4cccc(NC(=O)c5csc(-c6ccncc6)n5)c4)cc32)ncn1 [Example 16, N-(3-(1-(6-aminopyrimidin-4-yl)-1H-indol-6-yl)phenyl)-2-(pyridin-4-yl)thiazol-4-carboxamide] |  | < 10
Nc1cc(-n2ccc3ccc(-c4cccc(NC(=O)c5cnn(-c6ccccc6)c5C(F)(F)F)c4)cc32)ncn1 [Example 17, N-(3-(1-(6-aminopyrimidin-4-yl)-1H-indol-6-yl)phenyl)-1-phenyl-5-(trifluoromethyl)-1H-pyrazol-4-carboxamide] |  | < 10

Compound | GI50 [1] [µM] | GI50 [2] [µM]
Nc1cc(-n2ccc3ccc(-c4cccc(NC(=O)c5ccc(Br)s5)c4)cc32)ncn1 [Example 18, N-(3-(1-(6-aminopyrimidin-4-yl)-1H-indol-6-yl)phenyl)-5-bromothiophen-2-carboxamide] |  | < 10
CN1CCC(Oc2ccc(C(=O)Nc3cccc(-c4ccc5ccn(-c6cc(N)ncn6)c5c4)c3)cc2C(F)(F)F)CC1 [Example 19, N-(3-(1-(6-aminopyrimidin-4-yl)-1H-indol-6-yl)phenyl)-4-(1-methylpiperidin-4-yloxy)-3-(trifluoromethyl)benzamide] |  | < 10
Cc1ccc(S(=O)(=O)Nc2cccc(-c3ccc4ccn(-c5cc(N)ncn5)c4c3)c2)cc1 [Example 20, N-(3-(1-(6-aminopyrimidin-4-yl)-1H-indol-6-yl)phenyl)-4-methylbenzenesulfonamide] |  | < 10
COc1ccccc1NC(=O)Nc1cccc(-c2ccc3ccn(-c4cc(NC5CC5)ncn4)c3c2)c1 [Example 23, 1-(3-(1-(6-(cyclopropylamino)pyrimidin-4-yl)-1H-indol-6-yl)phenyl)-3-(2-methoxyphenyl)urea] | < 10 | < 10
COc1ccccc1NC(=O)Nc1cccc(-c2ccc3ccn(-c4cc(NCCN5CCOCC5)ncn4)c3c2)c1 [Example 24, 1-(2-methoxyphenyl)-3-(3-(1-(6-(2-morpholinoethylamino)pyrimidin-4-yl)-1H-indol-6-yl)phenyl)urea] | < 10 | < 10
COc1ccccc1NC(=O)Nc1cccc(-c2ccc3ccn(-c4ccnc(N)n4)c3c2)c1 [Example 25, 1-(3-(1-(2-aminopyrimidin-4-yl)-1H-indol-6-yl)phenyl)-3-(2-methoxyphenyl)urea] | < 10 | < 10
O=C(Nc1cccc(-c2ccc3ccn(-c4cc(NC(=O)C5CC5)ncn4)c3c2)c1)Nc1ccccc1F [Example 27, N-(6-(6-(3-(3-(2-fluorophenyl)ureido)phenyl)-1H-indol-1-yl)pyrimidin-4-yl)cyclopropanecarboxamide] |  | < 10
O=C(Nc1cccc(-c2ccc3ccn(-c4cc(NC(=O)C5CC5)ncn4)c3c2)c1)Nc1ccc(Cl)c(Cl)c1 [Example 28, N-(6-(6-(3-(3-(3,4-dichlorophenyl)ureido)phenyl)-1H-indol-1-yl)pyrimidin-4-yl)cyclopropanecarboxamide] |  | < 10
O=C(Nc1cccc(-c2ccc3ccn(-c4cc(NC(=O)C5CC5)ncn4)c3c2)c1)NC1CCCCC1 [Example 29, N-(6-(6-(3-(3-cyclohexylureido)phenyl)-1H-indol-1-yl)pyrimidin-4-yl)cyclopropanecarboxamide] |  | < 10
O=C(Nc1cccc(-c2ccc3ccn(-c4cc(NC(=O)C5CC5)ncn4)c3c2)c1)c1ccc(Cl)c(C(F)(F)F)c1 [Example 30, 4-chloro-N-(3-(1-(6-(cyclopropanecarboxamido)pyrimidin-4-yl)-1H-indol-6-yl)phenyl)-3-(trifluoromethyl)benzamide] |  | < 10
O=C(Nc1cccc(-c2ccc3ccn(-c4cc(NC(=O)C5CC5)ncn4)c3c2)c1)c1cc(N2CCOCC2)cc(C(F)(F)F)c1 [Example 31, N-(3-(1-(6-(cyclopropanecarboxamido)pyrimidin-4-yl)-1H-indol-6-yl)phenyl)-3-morpholino-5-(trifluoromethyl)benzamide] |  | < 10
Cc1cn(-c2cc(C(=O)Nc3cccc(-c4ccc5ccn(-c6cc(NC(=O)C7CC7)ncn6)c5c4)c3)cc(C(F)(F)F)c2)cn1 [Example 32, N-(3-(1-(6-(cyclopropanecarboxamido)pyrimidin-4-yl)-1H-indol-6-yl)phenyl)-3-(4-methyl-1H-imidazol-1-yl)-5-(trifluoromethyl)benzamide] |  | < 10
CC(C)(C#N)c1cccc(C(=O)Nc2cccc(-c3ccc4ccn(-c5cc(NC(=O)C6CC6)ncn5)c4c3)c2)c1 [Example 33, 3-(2-cyanopropan-2-yl)-N-(3-(1-(6-(cyclopropanecarboxamido)pyrimidin-4-yl)-1H-indol-6-yl)phenyl)benzamide] |  | < 10
COc1ccccc1NC(=O)Nc1ccc(C)c(-c2ccc3ccn(-c4cc(NC(=O)C5CC5)ncn4)c3c2)c1 [Example 35, N-(6-(6-(5-(3-(2-methoxyphenyl)ureido)-2-methylphenyl)-1H-indol-1-yl)pyrimidin-4-yl)cyclopropanecarboxamide] |  | < 10
COc1ccccc1NC(=O)Nc1cccc(-c2ccc3ccn(-c4ncnc5[nH]ccc45)c3c2)c1 [Example 36, 1-(3-(1-(7H-pyrrolo[2,3-d]pyrimidin-4-yl)-1H-indol-6-yl)phenyl)-3-(2-methoxyphenyl)urea] | < 10 | < 10
O=C(Nc1cccc(-c2ccc3ccn(-c4ncnc5[nH]ccc45)c3c2)c1)c1ccc(Cl)c(C(F)(F)F)c1 [Example 37, N-(3-(1-(7H-pyrrolo[2,3-d]pyrimidin-4-yl)-1H-indol-6-yl)phenyl)-4-chloro-3-(trifluoromethyl)benzamide] |  | < 10
